Drawing on US20240270750A1, “IMIDAZOLE-CONTAINING INHIBITORS OF ALK2 KINASE” (BioCryst Pharmaceuticals, Inc., priority 2021, published 2024), this text covers inhibition for 13 compounds.

The structures appear in SMILES notation.

In this assay the target is T1, ALK2 (Homo sapiens, UniProt Q04771).
T1 construct: purchased ThermoFisher Scientific (Life Technologies)
T1 sequence (Q04771 21-509): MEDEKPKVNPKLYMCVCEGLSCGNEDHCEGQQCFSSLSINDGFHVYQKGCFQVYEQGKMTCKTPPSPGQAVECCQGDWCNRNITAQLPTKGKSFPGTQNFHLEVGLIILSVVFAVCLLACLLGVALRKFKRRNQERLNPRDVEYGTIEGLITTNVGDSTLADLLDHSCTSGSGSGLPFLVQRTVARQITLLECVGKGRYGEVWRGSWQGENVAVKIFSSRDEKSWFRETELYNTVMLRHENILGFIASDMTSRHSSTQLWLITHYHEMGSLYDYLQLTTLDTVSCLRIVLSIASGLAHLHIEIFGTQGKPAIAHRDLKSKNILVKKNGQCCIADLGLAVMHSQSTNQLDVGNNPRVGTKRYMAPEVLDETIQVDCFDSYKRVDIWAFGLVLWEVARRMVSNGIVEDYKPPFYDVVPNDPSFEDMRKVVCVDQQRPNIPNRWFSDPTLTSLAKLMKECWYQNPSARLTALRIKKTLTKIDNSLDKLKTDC
Kind of assay: LanthaScreen Eu Kinase Binding Assay, ALK2 inhibition. The note with it: 1 micromolar concentration. As for the experimental part: Biochemical assays to measure the inhibitory effects of the compounds were performed by ThermoFisher Scientific (Life Technologies). ALK2 inhibition was tested using LanthaScreen™ Eu Kinase Binding Assay screening protocol.

As to `CC[C@@H](C)n1ncc2c(Nc3cn(-c4cc(OC)c(OC)c(OC)c4)cn3)nc(C(C)C)nc21` (single isomer, unassigned) [Compound 19d], the inhibition at 1 µM is above 50%.
Then `CC[C@H](C)n1ncc2c(Nc3cn(-c4cc(OC)c(OC)c(OC)c4)cn3)nc(C(C)C)nc21` (single isomer, unassigned) [Compound 22d], with above 50%.
Regarding `COc1cc(-n2cnc(Nc3nc(C(C)C)nc4c3cnn4-c3ccc(F)cc3)c2)cc(OC)c1OC` [Compound 1f, 1-(4-fluorophenyl)-6-isopropyl-N-(1-(3,4,5-trimethoxyphenyl)-1H-imidazol-4-yl)-1H-pyrazolo[3,4-d]pyrimidin-4-amine], the inhibition at 1 µM was above 50%.
Then `COc1cc(-n2cnc(Nc3nc(C(C)C)nc4c3cnn4C(C)(C)C)c2)cc(OC)c1OC` [Compound 2d, 1-(tert-butyl)-6-isopropyl-N-(1-(3,4,5-trimethoxyphenyl)-1H-imidazol-4-yl)-1H-pyrazolo[3,4-d]pyrimidin-4-amine], with above 50%.
Then `C=C(C)c1nc(Nc2cn(-c3cc(OC)c(OC)c(OC)c3)cn2)c2cnn(C(C)C)c2n1` [Compound 3d, 1-isopropyl-6-(prop-1-en-2-yl)-N-(1-(3,4,5-trimethoxyphenyl)-1H-imidazol-4-yl)-1H-pyrazolo[3,4-d]pyrimidin-4-amine], with above 50%; and `COc1cc(-n2cnc(Nc3nc(C(C)C)nc4c3cnn4C(C)C)c2)cc(OC)c1OC` [Compound 4a, 1,6-diisopropyl-N-(1-(3,4,5-trimethoxyphenyl)-1H-imidazol-4-yl)-1H-pyrazolo[3,4-d]pyrimidin-4-amine], with above 50%.
Then `COc1cc(-n2cnc(Nc3nc(C=C(C)C)nc4c3cnn4C(C)C)c2)cc(OC)c1OC` [Compound 5b, 1-isopropyl-6-(2-methylprop-1-en-1-yl)-N-(1-(3,4,5-trimethoxyphenyl)-1H-imidazol-4-yl)-1H-pyrazolo[3,4-d]pyrimidin-4-amine], with above 50%; and `COc1cc(-n2cnc(Nc3nc(CC(C)C)nc4c3cnn4C(C)C)c2)cc(OC)c1OC` [Compound 6a, 6-isobutyl-1-isopropyl-N-(1-(3,4,5-trimethoxyphenyl)-1H-imidazol-4-yl)-1H-pyrazolo[3,4-d]pyrimidin-4-amine], with above 50%.
In turn, `COc1cc(-n2cnc(Nc3nc(C4CC4)nc4c3cnn4C(C)C)c2)cc(OC)c1OC` [Compound 7e, 6-cyclopropyl-1-isopropyl-N-(1-(3,4,5-trimethoxyphenyl)-1H-imidazol-4-yl)-1H-pyrazolo[3,4-d]pyrimidin-4-amine] displayed an inhibition at 1 µM above 50%.
Then `COc1cc(-n2cnc(Nc3nc(C(C)C)c4cnn(C(C)C)c4n3)c2)cc(OC)c1OC` [Compound 8b, 1,4-diisopropyl-N-(1-(3,4,5-trimethoxyphenyl)-1H-imidazol-4-yl)-1H-pyrazolo[3,4-d]pyrimidin-6-amine], with above 50%; and `COc1cc(-n2cnc(Nc3nc(C(C)(C)C)c4cnn(C(C)C)c4n3)c2)cc(OC)c1OC` [Compound 9b, 4-(tert-butyl)-1-isopropyl-N-(1-(3,4,5-trimethoxyphenyl)-1H-imidazol-4-yl)-1H-pyrazolo[3,4-d]pyrimidin-6-amine], with above 50%; and `COc1cc(-n2cnc(Nc3nc(C)c4cnn(C(C)C)c4n3)c2)cc(OC)c1OC` [Compound 11b, 1-isopropyl-4-methyl-N-(1-(3,4,5-trimethoxyphenyl)-1H-imidazol-4-yl)-1H-pyrazolo[3,4-d]pyrimidin-6-amine], with above 50%.
Then `COc1cc(-n2cnc(Nc3nc(C4CCCCC4)c4cnn(C(C)C)c4n3)c2)cc(OC)c1OC` [Compound 12b, 4-cyclohexyl-1-isopropyl-N-(1-(3,4,5-trimethoxyphenyl)-1H-imidazol-4-yl)-1H-pyrazolo[3,4-d]pyrimidin-6-amine], with above 50%.
